One test has as its target T1, HiBiT-tagged BCL-xL (Homo sapiens, UniProt Q07817).
T1 construct: expressed in transfected cells; host or cells: NCI-H1650 (ATCC No. CRL-5883), engineered HiBiT cell line
The experiment in a line: NCI-H1650 BCL-xL protein levels, Nano-Glo HiBiT Lytic Detection. It counts as cell-based. As to conditions: NCI-H1650 expressing HiBiT-tagged BCL-xL, overnight incubation, read-out: Bcl-xl HIBIT NCIH1650 DC50. The gist of the method:
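HiBiT luminescence after cell lysis with LgBiT/furimazine reagent reported BCL-xL levels, expressed relative to untreated wells and fitted with a four-parameter logistic equation. Engineered NCI-H1650 cells were exposed overnight at 37° C to compound at final 0.508 nM-10 μM (10 points, triplicate plates).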

The test system of test [1] is EBC-1 lung cancer cell line. The experiment in a line: EBC-1 cell proliferation, CellTiter-Glo assay. It counts as cell-based. As to conditions: Homo sapiens, 120 h; Ebc-1 cell viability, CTG assay, 5 days of treatment; read-out: CTG 5 day Ebc1 GI50. The gist of the method: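 CellTiter-Glo read-out after 5-day compound treatment, normalised to untreated cells, with GI50 derived by four-parameter logistic regression. Ten concentrations spanning 0.508 nM–10 μM were added to 1000 EBC-1 cells per well the day after seeding. Assays required at least one cell doubling versus Day 0.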
(Cellular ATP, detected with luciferase, serves as a proxy for viable cell number.)

Bounds are passed on as bounds.

T1 sequence (Q07817 whole entry): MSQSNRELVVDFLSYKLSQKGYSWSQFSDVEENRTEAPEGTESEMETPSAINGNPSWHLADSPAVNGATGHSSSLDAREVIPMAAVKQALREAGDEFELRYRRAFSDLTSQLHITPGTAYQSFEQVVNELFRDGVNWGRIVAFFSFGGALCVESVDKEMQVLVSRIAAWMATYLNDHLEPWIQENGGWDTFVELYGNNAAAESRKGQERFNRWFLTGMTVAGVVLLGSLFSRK

Take `Cc1ncsc1-c1ccc([C@H](C)NC(=O)[C@@H]2C[C@@H](O)CN2C(=O)[C@@H](NC(=O)CCCCCCCCCCCN2CCN(CC#Cc3ccc(OCCCc4sc(N5CCCc6c5nnc(Nc5nc7ccccc7s5)c6C)nc4C(=O)O)c(F)c3)CC2)C(C)(C)C)cc1` [Example 51, 2-(3-(benzo[d]thiazol-2-ylamino)-4-methyl-6,7-dihydropyrido [2,3-c]pyridazin-8(5H)-yl)-5-(3-(2-fluoro-4-(3-(4-(12-(((S)-1-((2S,4R)-4-hydroxy-2-(((S)-1-(4-(4-methylthiazol-5-yl)phenyl)ethyl)carbamoyl)pyrrolidin-1-yl)-3,3-dimethyl-1-oxobutan-2-yl)amino)-12-oxododecyl)piperazin-1-yl)prop-1-yn-1-yl)phenoxy)propyl)thiazole-4-carboxylic acid]: at HiBiT-tagged BCL-xL, the DC50 amounted to 0.3 nM. Moreover, the GI50 (in general, the concentration giving 50% growth inhibition) in test [1] was 1 nM.

For `Cc1ncsc1-c1ccc([C@H](C)NC(=O)C2CC(O)CN2C(=O)C(NC(=O)CCCCCCCCCCCN2CCN(CC#Cc3ccc(OCCCc4sc(N5CCCc6c5nnc(Nc5nc7ccccc7s5)c6C)nc4C(=O)O)c(F)c3)CC2)C(C)(C)C)cc1` (stereo in doubt) [Example 31, 2-[3-(1,3-benzothiazol-2-ylamino)-4-methyl-6,7-dihydro-5H-pyrido[2,3-c]pyridazin-8-yl]-5-[3-[2-fluoro-4-[3-[4-[12-[[(1S)-1-[(2S,4R)-4-hydroxy-2-[[(1S)-1-[4-(4-methylthiazol-5-yl)phenyl]ethyl]carbamoyl]pyrrolidine-1-carbonyl]-2,2-dimethyl-propyl]amino]-12-oxo-dodecyl]piperazin-1-yl]prop-1-ynyl]phenoxy]propyl] thiazole-4-carboxylic acid], the DC50 on HiBiT-tagged BCL-xL came out at 0.4 nM. The GI50 in test [1] was 1 nM.

`Cc1ncsc1-c1ccc([C@H](C)NC(=O)[C@@H]2C[C@@H](O)CN2C(=O)[C@@H](NC(=O)CCCC(=O)N2CCN(CC#Cc3ccc(OCCCc4sc(N5CCCc6c5nnc(Nc5nc7ccccc7s5)c6C)nc4C(=O)O)c(F)c3)CC2)C(C)(C)C)cc1` [Example 35, 2-(3-(benzo[d]thiazol-2-ylamino)-4-methyl-6,7-dihydropyrido [2,3-c]pyridazin-8(5H)-yl)-5-(3-(2-fluoro-4-(3-(4-(5-(((S)-1-((2S,4R)-4-hydroxy-2-(((S)-1-(4-(4-methylthiazol-5-yl)phenyl)ethyl)carbamoyl)pyrrolidin-1-yl)-3,3-dimethyl-1-oxobutan-2-yl)amino)-5-oxopentanoyl)piperazin-1-yl)prop-1-yn-1-yl)phenoxy)propyl)thiazole-4-carboxylic acid]: the DC50 at HiBiT-tagged BCL-xL was greater than 1670 nM. In addition, the concentration for 50% growth inhibition (GI50) in test [1] is 19 nM.

In the case of `Cc1ncsc1-c1ccc([C@H](C)NC(=O)[C@@H]2C[C@@H](O)CN2C(=O)[C@@H](NC(=O)CCCCCCCCN(C)CCOC23CC4(C)CC(C)(CC(Cn5ncc(-c6ccc(N7CCCc8c7nnc(Nc7nc9ccccc9s7)c8C)nc6C(=O)O)c5C)(C4)C2)C3)C(C)(C)C)cc1` [Example 5, 6-[3-(1,3-benzothiazol-2-ylamino)-4-methyl-6,7-dihydro-5H-pyrido[2,3-c]pyridazin-8-yl]-3-[1-[[3-[2-[[9-[[(1S)-1-[(2S,4R)-4-hydroxy-2-[[(1S)-1-[4-(4-methylthiazol-5-yl)phenyl]ethyl]carbamoyl]pyrrolidine-1-carbonyl]-2,2-dimethyl-propyl]amino]-9-oxo-nonyl]-methyl-amino]ethoxy]-5,7-dimethyl-1-adamantyl]methyl]-5-methyl-pyrazol-4-yl]pyridine-2-carboxylic acid], on HiBiT-tagged BCL-xL, the DC50 turned out to be 2 nM. Also, in test [1], the GI50 was 23 nM.

`Cc1ncsc1-c1ccc([C@H](C)NC(=O)[C@@H]2C[C@@H](O)CN2C(=O)[C@@H](NC(=O)CC23CC4CC(C2)CC(CC(=O)N2CCN(CC#Cc5ccc(OCCCc6sc(N7CCCc8c7nnc(Nc7nc9ccccc9s7)c8C)nc6C(=O)O)c(F)c5)CC2)(C4)C3)C(C)(C)C)cc1` [Example 42, 2-(3-(benzo[d]thiazol-2-ylamino)-4-methyl-6,7-dihydropyrido [2,3-c]pyridazin-8(5H)-yl)-5-(3-(2-fluoro-4-(3-(4-(2-((3S,5R)-3-(2-(((S)-1-((2S,4R)-4-hydroxy-2-(((S)-1-(4-(4-methylthiazol-5-yl)phenyl)ethyl)carbamoyl)pyrrolidin-1-yl)-3,3-dimethyl-1-oxobutan-2-yl)amino)-2-oxoethyl)adamantan-1-yl)acetyl)piperazin-1-yl)prop-1-yn-1-yl)phenoxy)propyl)thiazole-4-carboxylic acid]: the DC50 on HiBiT-tagged BCL-xL is greater than 1670 nM. In addition, the GI50 in test [1] is 21 nM.

As for `Cc1ncsc1-c1ccc(CNC(=O)C2C[C@@H](O)CN2C(=O)C(NC(=O)CCCCCC(=O)N2CCN(CC#Cc3ccc(OCCCc4sc(N5CCCc6c5nnc(Nc5nc7ccccc7s5)c6C)nc4C(=O)O)c(F)c3)CC2)C(C)(C)C)cc1` (stereo in doubt) [Example 15, 2-[3-(1,3-benzothiazol-2-ylamino)-4-methyl-6,7-dihydro-5H-pyrido[2,3-c]pyridazin-8-yl]-5-[3-[2-fluoro-4-[3-[4-[7-[[(1S)-1-[(2S,4R)-4-hydroxy-2-[[4-(4-methylthiazol-5-yl)phenyl]methylcarbamoyl]pyrrolidine-1-carbonyl]-2,2-dimethyl-propyl]amino]-7-oxo-heptanoyl]piperazin-1-yl]prop-1-ynyl]phenoxy]propyl] thiazole-4-carboxylic acid], on HiBiT-tagged BCL-xL, the DC50 is greater than 1670 nM. For the same molecule, in test [1], the 50% growth inhibitory concentration (GI50) is 21 nM.

Regarding `Cc1ncsc1-c1ccc([C@H](C)NC(=O)[C@@H]2C[C@@H](O)CN2C(=O)[C@@H](NC(=O)CCCCCCCCCCC(=O)N2CCN(CCOC34CC5(C)CC(C)(CC(Cn6ncc(-c7ccc(N8CCCc9c8nnc(Nc8nc%10ccccc%10s8)c9C)nc7C(=O)O)c6C)(C5)C3)C4)CC2)C(C)(C)C)cc1` [Example 47, 6-(3-(benzo[d]thiazol-2-ylamino)-4-methyl-6,7-dihydropyrido [2,3-c]pyridazin-8(5H)-yl)-3-(1-(((1r,3s,5R,7S)-3-(2-(4-(12-(((S)-1-((2S,4R)-4-hydroxy-2-(((S)-1-(4-(4-methylthiazol-5-yl)phenyl)ethyl)carbamoyl)pyrrolidin-1-yl)-3,3-dimethyl-1-oxobutan-2-yl)amino)-12-oxododecanoyl)piperazin-1-yl)ethoxy)-5,7-dimethyladamantan-1-yl)methyl)-5-methyl-1H-pyrazol-4-yl)picolinic acid], the DC50 at HiBiT-tagged BCL-xL is 9 nM. The GI50 in test [1] stood at 76 nM.

Regarding `Cc1ncsc1-c1ccc([C@H](C)NC(=O)[C@@H]2C[C@@H](O)CN2C(=O)[C@@H](NC(=O)CCCCCCCCCCC(=O)N2CCN(CC#Cc3ccc(OCCCc4sc(N5CCCc6c5nnc(Nc5nc7ccccc7s5)c6C)nc4C(=O)O)c(F)c3)CC2)C(C)(C)C)cc1` [Example 46, 2-(3-(benzo[d]thiazol-2-ylamino)-4-methyl-6,7-dihydropyrido [2,3-c]pyridazin-8(5H)-yl)-5-(3-(2-fluoro-4-(3-(4-(12-(((S)-1-((2S,4R)-4-hydroxy-2-(((S)-1-(4-(4-methylthiazol-5-yl)phenyl)ethyl)carbamoyl)pyrrolidin-1-yl)-3,3-dimethyl-1-oxobutan-2-yl)amino)-12-oxododecanoyl)piperazin-1-yl)prop-1-yn-1-yl)phenoxy)propyl)thiazole-4-carboxylic acid], the DC50 at HiBiT-tagged BCL-xL was 2 nM. The GI50 in test [1] was 7 nM.

Regarding `Cc1ncsc1-c1ccc(CNC(=O)[C@@H]2C[C@@H](O)CN2C(=O)[C@@H](NC(=O)CCCCCCC(=O)N2CCN(CC#Cc3ccc(OCCCc4sc(N5CCCc6c5nnc(Nc5nc7ccccc7s5)c6C)nc4C(=O)O)c(F)c3)CC2)C(C)(C)C)cc1` [Example 33, 2-(3-(benzo[d]thiazol-2-ylamino)-4-methyl-6,7-dihydropyrido [2,3-c]pyridazin-8(5H)-yl)-5-(3-(2-fluoro-4-(3-(4-(8-(((S)-1-((2S,4R)-4-hydroxy-2-((4-(4-methylthiazol-5-yl)benzyl)carbamoyl)pyrrolidin-1-yl)-3,3-dimethyl-1-oxobutan-2-yl)amino)-8-oxooctanoyl)piperazin-1-yl)prop-1-yn-1-yl)phenoxy)propyl) thiazole-4-carboxylic acid], the DC50 at HiBiT-tagged BCL-xL is greater than 1670 nM. Besides, in test [1], the GI50 is 33 nM.

As to `Cc1ncsc1-c1ccc([C@H](C)NC(=O)[C@@H]2C[C@@H](O)CN2C(=O)[C@@H](NC(=O)CCCCCCCN(C)CCOC23CC4(C)CC(C)(CC(Cn5ncc(-c6ccc(N7CCCc8c7nnc(Nc7nc9ccccc9s7)c8C)nc6C(=O)O)c5C)(C4)C2)C3)C(C)(C)C)cc1` [Example 6, 6-[3-(1,3-benzothiazol-2-ylamino)-4-methyl-6,7-dihydro-5H-pyrido[2,3-c]pyridazin-8-yl]-3-[1-[[3-[2-[[8-[[(1S)-1-[(2S,4R)-4-hydroxy-2-[[(1S)-1-[4-(4-methylthiazol-5-yl)phenyl]ethyl]carbamoyl]pyrrolidine-1-carbonyl]-2,2-dimethyl-propyl]amino]-8-oxo-octyl]-methyl-amino]ethoxy]-5,7-dimethyl-1-adamantyl]methyl]-5-methyl-pyrazol-4-yl]pyridine-2-carboxylic acid], the DC50 on HiBiT-tagged BCL-xL was 3 nM. For the same molecule, in test [1], the GI50 stood at 13 nM.

For the origin of these results see patent publication US20240376094A2, “SELECTIVE BCL-XL PROTAC COMPOUNDS AND METHODS OF USE” (Les Laboratoires Servier, priority 2021, published 2024).
